This note sets out measurements from US20250171437A1 (Agios Pharmaceuticals,Inc., priority 2022, published 2025).

The experiment deals with T1, human PAH with the R408W mutation (A375 R408W cells) (Homo sapiens, UniProt P00439, R408W).
T1 construct: expressed in transfected cells
T1 sequence (P00439 1-452 R408W): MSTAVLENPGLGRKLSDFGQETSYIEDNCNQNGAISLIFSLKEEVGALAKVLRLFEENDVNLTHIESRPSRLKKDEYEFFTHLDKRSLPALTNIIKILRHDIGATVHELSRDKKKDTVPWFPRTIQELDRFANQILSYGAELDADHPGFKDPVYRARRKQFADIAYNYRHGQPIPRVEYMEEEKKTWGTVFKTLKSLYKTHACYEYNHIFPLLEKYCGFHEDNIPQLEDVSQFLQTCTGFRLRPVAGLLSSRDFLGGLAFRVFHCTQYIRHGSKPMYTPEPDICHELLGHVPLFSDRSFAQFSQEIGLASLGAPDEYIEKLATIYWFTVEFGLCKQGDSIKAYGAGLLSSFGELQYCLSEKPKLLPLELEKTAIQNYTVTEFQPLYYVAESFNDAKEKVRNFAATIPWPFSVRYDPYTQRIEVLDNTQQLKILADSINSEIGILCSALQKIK
The experiment is described as follows: Cell Based Phenylalanine Flux Assay. The note with it: 24 hrs with compound, then 20 μM sepiapterin and 800 μM 13C9,15N-Phenylalanine for 4 hours, 13C-Tyrosine by LC-MS, average where tested multiple times. In short, it runs like this:
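Phenylalanine-to-tyrosine flux is measured in A375 cells carrying stable human R408W PAH. After 24 h compound exposure, 13C9,15N-Phe (800 μM) with sepiapterin (20 μM) is supplied for 4 h and media 13C-Tyr is read by LC-MS; AC50s are binned.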

The mark [1] stands for this setting: A375 cells expressing R408W PAH.

Where only a bound is given, the exact number is not on record here.

The AC50 is the concentration giving half of the maximal activity seen. With `CC(C)(O)c1nc(Br)c(C(=O)N2CCc3[nH]cnc3[C@H]2c2nc3cccc(F)c3o2)o1` [Example 263, (S)-(4-bromo-2-(2-hydroxypropan-2-yl)oxazol-5-yl)(4-(7-fluorobenzo[d]oxazol-2-yl)-6,7-dihydro-1H-imidazo[4,5-c]pyridin-5(4H)-yl)methanone], the half-maximal activity concentration (AC50) (A375 R408W cells) is ≤ 500 nM.

For the compound `Cn1nc(Cl)nc1C(=O)N1CCc2[nH]cnc2C1c1nc2cc(F)ccc2o1` (stereo not shown), the AC50 under setting [1] is 1000 to 5000 nM.

For `Cn1nccc1C(=O)N1CCc2[nH]cnc2C1c1nc2cc(F)ccc2o1` (stereo not shown), the AC50 under setting [1] is 1000 to 5000 nM.

On to `CC(C)(O)c1nc(C(F)F)c(C(=O)N2CCc3[nH]cnc3[C@H]2c2nc3c(C(F)(F)F)cccc3o2)o1` [Example 463, (S)-(4-(difluoromethyl)-2-(2-hydroxypropan-2-yl)oxazol-5-yl)(4-(4-(trifluoromethyl)benzo[d]oxazol-2-yl)-6,7-dihydro-1H-imidazo[4,5-c]pyridin-5(4H)-yl)methanone], for which the AC50 (A375 R408W cells) was ≤ 500 nM.

Turning to `CC(O)c1nc(Br)c(C(=O)N2CCc3[nH]cnc3[C@H]2c2nc3cc(F)ccc3o2)o1` (single isomer, unassigned) [Example 225], under “A375 R408W cells”, the AC50 was 1000 to 5000 nM.

As to `Cc1ccc2c(C(=O)N3CCc4[nH]cnc4[C@H]3c3nc4cc(F)ccc4o3)cnn2c1` [Example 19, (S)-(4-(5-fluorobenzo[d]oxazol-2-yl)-6,7-dihydro-1H-imidazo[4,5-c]pyridin-5(4H)-yl)(6-methylpyrazolo[1,5-a]pyridin-3-yl)methanone], for the setting “A375 R408W cells”, the AC50 was in the range of 1000 to 5000 nM.

Consider `O=C(CCc1ncco1)N1CCc2[nH]cnc2C1c1nc2cc(F)ccc2o1` (stereo not shown), for which, under setting [1], the AC50 fell in the range of 1000 to 5000 nM.

Regarding `O=C(c1nnc(-c2cnn(CC(F)F)c2)o1)N1CCc2[nH]cnc2C1c1nc2cc(F)ccc2o1` (stereo not shown), the AC50 under setting [1] was 1000 to 5000 nM.

For the compound `Cc1ccc2nc([C@@H]3c4nc[nH]c4CCN3C(=O)c3ocnc3C(F)(F)F)oc2c1` [Example 57, (S)-(4-(6-methylbenzo[d]oxazol-2-yl)-6,7-dihydro-1H-imidazo[4,5-c]pyridin-5(4H)-yl)(4-(trifluoromethyl)oxazol-5-yl)methanone], for the setting “A375 R408W cells”, the AC50 was ≤ 500 nM.

As for `O=C(c1nnc(-c2ncccc2F)o1)N1CCc2[nH]cnc2[C@H]1c1nc2ccccc2o1` [Example 833, (S)-(4-(benzo[d]oxazol-2-yl)-6,7-dihydro-1H-imidazo[4,5-c]pyridin-5(4H)-yl)(5-(3-fluoropyridin-2-yl)-1,3,4-oxadiazol-2-yl)methanone], under “A375 R408W cells”, the AC50 was ≤ 500 nM.

For `CC(O)c1nc(Br)c(C(=O)N2CCc3[nH]cnc3[C@H]2c2nc3cc(F)ccc3o2)o1` (single isomer, unassigned) [Example 226], the AC50 (A375 R408W cells) is ≤ 500 nM.

As to `Cn1cc(-c2nnc(C(=O)N3CCc4[nH]cnc4[C@H]3c3nc4cccc(F)c4o3)o2)cn1` [Example 191, (S)-(4-(7-fluorobenzo[d]oxazol-2-yl)-6,7-dihydro-1H-imidazo[4,5-c]pyridin-5(4H)-yl)(5-(1-methyl-1H-pyrazol-4-yl)-1,3,4-oxadiazol-2-yl)methanone], the AC50 (A375 R408W cells) is 500 to 1000 nM.

On to `O=C(c1oc(-c2ncccn2)nc1C(F)F)N1CCc2[nH]cnc2[C@H]1c1nc2cccc(F)c2o1` [Example 667, (S)-(4-(difluoromethyl)-2-(pyrimidin-2-yl)oxazol-5-yl)(4-(7-fluorobenzo[d]oxazol-2-yl)-6,7-dihydro-1H-imidazo[4,5-c]pyridin-5(4H)-yl)methanone], for which the AC50 (A375 R408W cells) was ≤ 500 nM.

With `COCc1ncc(C(=O)N2CCc3[nH]cnc3C2c2nc3cc(F)ccc3o2)o1` (stereo not shown), the AC50 under setting [1] was in the range of 1000 to 5000 nM.

Consider `O=C(c1cnn2cc(N3CCOCC3)ccc12)N1CCc2[nH]cnc2[C@H]1c1nc2cccc(F)c2o1` [Example 365, (S)-(4-(7-fluorobenzo[d]oxazol-2-yl)-6,7-dihydro-1H-imidazo[4,5-c]pyridin-5(4H)-yl)(6-morpholinopyrazolo[1,5-a]pyridin-3-yl)methanone], for which, for the setting “A375 R408W cells”, the concentration at half-maximal activity (AC50) lay within 500 to 1000 nM.

In the case of `CC(C)(C)c1nnc(C(=O)N2CCc3[nH]cnc3[C@@H]2c2nc3c(F)ccc(F)c3o2)o1` [Example 851, (R)-(5-(tert-butyl)-1,3,4-oxadiazol-2-yl)(4-(4,7-difluorobenzo[d]oxazol-2-yl)-6,7-dihydro-1H-imidazo[4,5-c]pyridin-5(4H)-yl)methanone], under “A375 R408W cells”, the AC50 is 500 to 1000 nM.

For `Cn1nc(N)cc1C(=O)N1CCc2[nH]cnc2C1c1nc2cc(F)ccc2o1` (stereo not shown), the AC50 under setting [1] was ≥ 5000 nM.

For `COCCNc1ccc2c(C(=O)N3CCc4[nH]cnc4C3c3nc4cc(F)ccc4o3)cnn2c1` (stereo not shown), the AC50 under setting [1] lay within 1000 to 5000 nM.

Turning to `CC(C)(O)c1nc(C(F)F)c(C(=O)N2CCc3[nH]cnc3[C@@H]2c2nc3cccc(C(F)(F)F)c3o2)o1` [Example 454, (R)-(4-(difluoromethyl)-2-(2-hydroxypropan-2-yl)oxazol-5-yl)(4-(7-(trifluoromethyl)benzo[d]oxazol-2-yl)-6,7-dihydro-1H-imidazo[4,5-c]pyridin-5(4H)-yl)methanone], the AC50 (A375 R408W cells) was 1000 to 5000 nM.

Take `Cc1ccc2nc([C@@H]3c4nc[nH]c4CCN3C(=O)c3ccnn3C(F)F)oc2c1` [Example 317, (S)-(1-(difluoromethyl)-1H-pyrazol-5-yl)(4-(6-methylbenzo[d]oxazol-2-yl)-6,7-dihydro-1H-imidazo[4,5-c]pyridin-5(4H)-yl)methanone]: the AC50 (A375 R408W cells) is ≤ 500 nM.

Consider `O=C(c1ocnc1C(F)F)N1CCc2[nH]cnc2[C@H]1c1nc2cc(F)cc(F)c2o1` [Example 309, (S)-(4-(5,7-difluorobenzo[d]oxazol-2-yl)-6,7-dihydro-1H-imidazo[4,5-c]pyridin-5(4H)-yl)(4-(difluoromethyl)oxazol-5-yl)methanone], for which the AC50 (A375 R408W cells) was ≤ 500 nM.

For `CC(C)(O)c1nc(C(F)F)c(C(=O)N2CCc3[nH]cnc3[C@H]2c2nc3cc(Cl)cc(F)c3o2)o1` [Example 605, (S)-(4-(5-chloro-7-fluorobenzo[d]oxazol-2-yl)-6,7-dihydro-1H-imidazo[4,5-c]pyridin-5(4H)-yl)(4-(difluoromethyl)-2-(2-hydroxypropan-2-yl)oxazol-5-yl)methanone], for the setting “A375 R408W cells”, the AC50 is ≤ 500 nM.

Take `Cn1cnc(-c2nnc(C(=O)N3CCc4[nH]cnc4C3c3nc4cccc(C(F)(F)F)c4o3)o2)c1` (stereo not shown): the AC50 under setting [1] lay within 1000 to 5000 nM.

`O=C(c1ccnn1CC(F)F)N1CCc2[nH]cnc2[C@@H]1c1nc2c(F)cccc2o1` [Example 849, (R)-(1-(2,2-difluoroethyl)-1H-pyrazol-5-yl)(4-(4-fluorobenzo[d]oxazol-2-yl)-6,7-dihydro-1H-imidazo[4,5-c]pyridin-5(4H)-yl)methanone]: under “A375 R408W cells”, the AC50 was ≤ 500 nM.

With `CN1CCN(c2ccc3c(C(=O)N4CCc5[nH]cnc5[C@H]4c4nc5c(F)cccc5o4)cnn3c2)CC1` [Example 475, (S)-(4-(4-fluorobenzo[d]oxazol-2-yl)-6,7-dihydro-1H-imidazo[4,5-c]pyridin-5(4H)-yl)(6-(4-methylpiperazin-1-yl)pyrazolo[1,5-a]pyridin-3-yl)methanone], the AC50 (A375 R408W cells) was ≤ 500 nM.

As to `O=C(c1cnn2cc(N3CCOCC3)c(Cl)cc12)N1CCc2[nH]cnc2[C@@H]1c1nc2cc(F)ccc2o1` [Example 176, (R)-(5-chloro-6-morpholinopyrazolo[1,5-a]pyridin-3-yl)(4-(5-fluorobenzo[d]oxazol-2-yl)-6,7-dihydro-1H-imidazo[4,5-c]pyridin-5(4H)-yl)methanone], the AC50 (A375 R408W cells) lay in the range of 1000 to 5000 nM.

Take `O=C(c1nnc(-c2ncccc2F)o1)N1CCc2[nH]cnc2C1c1nc2cc(F)ccc2o1` (stereo not shown): the AC50 under setting [1] fell in the range of 1000 to 5000 nM.

On to `Cc1ccc2nc(C3c4nc[nH]c4CCN3C(=O)c3cnn4cc(CN(C)C)ccc34)oc2c1` (stereo not shown), for which the AC50 under setting [1] is ≥ 5000 nM.
